Measured values from patent publication US20070004036A1, “Methods and compositions for keratinocyte culture” (priority 2005, published 2007).

System: Human dermal adult and newborn skin fibroblasts
Experiment: Fibroblast proliferation in SFM and serum-containing media
Type: cell-based
Details: primary and secondary culture, FIG. 5
Description: Human dermal adult and newborn skin fibroblasts were cultured in a SFM and serum-containing media (DMEM 5% FBS). Collagenase (1 μg/ml) was added to the DMEM serum free media (SFM) and tested on primary and secondary culture of human adult and newborn fibroblasts. In both cases (SFM and DMEM 5%) Collagenase increase cell proliferation up to 2-2.5 fold over the controls.

With Collagenase the “increase in cell proliferation over the controls” value (DMEM 5% FBS) was 2-2.5 fold and the “increase in cell proliferation over the controls” value (SFM, collagenase 1 μg/ml) was 2-2.5 fold.
